Source: patent US6284789A, “Formation and composition of new optically active compounds” (The Research Foundation of State University of New York, priority 1999, dated 2001)
Read-outs that look alike come from different tables or passages of the source.

Experiments:
[1] = system: 60 human tumor cell line screen; assay: NCI 60 human tumor cell line screen, in vitro antiproliferative activity (sulforhodamine B assay); type: cell-based; settings: for Percentage of cell lines affected at the given concentration: at the GI50 bound or range given on the same line of Table 3
Method: The NCI […] Screening Procedure is described in Monks et al., J. Natl. Cancer Inst., 83: […], as are the origins and processing of the cell lines. In summary, cell suspensions that are diluted according to the particular cell type and the expected target cell density (5000-40,000 cells per well based on cell growth characteristics) are added by pipet (100 μL) into 96-well microtiter plates. Inoculates are allowed a preincubation period of 24 hours at 37° C. for stabilization. Dilutions at twice the intended test concentration were added at time zero in 100 μL aliquots to the microtiter plate wells. Usually, test compounds are evaluated at five 10-fold dilutions. In routine testing, the highest well concentration is 10^-4 M, but for the standard agents the highest well concentration used depends on the agent. Incubations last for 48 hours in 5% CO2 atmosphere and 100% relative humidity. The cells are assayed by using the sulforhodamine B assay. A plate reader is used to read the optical densities, and a microcomputer processes the optical densities into the special concentration parameters.

antitumor activity = settings: background; cited from earlier work
[2] = system: tubulin / microtubule assembly; settings: background; cited from earlier work
[3] = system: nucleoside transport in mammalian cells; settings: background; cited from earlier work
[4] = background; cited from earlier work
antiviral activity = settings: background; cited from earlier work
cell division = settings: background; cited from earlier work
tolpoisomerase II = settings: increased single and double strand breaks in DNA, background; cited from earlier work
[5] = system: leukemias and solid tumors; settings: background; cited from earlier work
[6] = system: standard panel of 12 human tumor cell lines; assay: Hollow fiber assay, preliminary in vivo testing; set-up: species or system human tumor cell lines in mice; settings: i.p. injection once daily, 4 doses, 2 dose levels
Method: Preliminary in vivo testing was conducted by the hollow fiber assay on the oxabicyclooctane and the dioxatricyclodecanes identified as sufficiently active in the large scale in vitro cell screens. Each compound is tested against a standard panel of 12 human tumor cell lines, including NCI-H23, […], MDA-MB-231, MDA-MB-435, SW-620, COLO 205, LOX IMVI, UACC-62, OVCAR-3, OVCAR-5, U251, and SF-295. The cell lines are cultivated in RPMI-1640 containing 10% FBS and 2 mM glutamine. On the day preceding hollow fiber preparation, the cells are given a supplementation of fresh medium to maintain log phase growth. […] On the day of implantation, samples of each tumor cell line is quantitated for viable cell mass by a stable endpoint MTT assay so that the time 0 cell mass is known. Thus, the cytostatic and cytocidal capacities of the test compound can be assessed. […] Each agent is assessed by intraperitoneal injection at 2 dose levels with 3 mice/dose/experiment. […] The optical density of each sample is determined spectropphotomnetrically at 540 nm and the mean of each treatment group is calculated. The percent net cell growth in each treatment group is calculated and compared to the percent net cell growth in the vehicle treated controls. Each compound is assessed in a total of 4 experiments (3 cell lines/experiment×4 experiments=12 cell lines). […]

For “7-acetoxy-6-methoxytetralin-1-one [compound 87]”, which “Percentage of cell lines affected at the given concentration” value (“Percentage of cell lines affected” below) [1] is on record?
The value was 93%.

With `COc1cc([C@@H]2c3cc4c(cc3[C@H](O)[C@H]3COC(=O)[C@@H]23)OCO4)cc(OC)c1OC` (stereo in doubt) [picropodophyllotoxin] as the molecule, how does the “Antitumor / biological activity” value (antitumor activity) read?
The value was “biologically inactive”.

With `COc1cc([C@H]2c3cc(O)c(OC)cc3C[C@H]3C(=O)OC[C@H]23)ccc1O` [ACON, α-Conidendrin] as the molecule, how does the “Antitumor / biological activity” value (antitumor activity) read?
Its value is “biologically inactive”.

With `COc1cc([C@H]2c3cc(O)c(OC)cc3C[C@@H]3C(=O)OC[C@H]23)ccc1O` [BCON, β-conidendrin] as the molecule, how does the “Antitumor / biological activity” value (antitumor activity) read?
The value was “biologically inactive”.

Which “Percentage of cell lines with the GI50 range” value ([1]; GI50 ranging from less than 10^-8 to 10^-5 molar) does the source give for `COc1cc([C@]23OC[C@H](Cc4cc5c(cc42)OCO5)[C@@H]3CO)cc(OC)c1OC` [No. 2] here?
The value was 26%.

What about the GI50 ([1]; observed for 26% of cell lines, read-out: GI50 range observed) of the same molecule?
Its GI50 is 0.01 to 10 µM.

Which GI50 ([1]; 60 human tumor cell lines, 48 h, for the percentage of cell lines given beside it, read-out: GI50 (growth inhibition, 50%), GL50 [sic] in the source) does the source give for `COc1ccc([C@]23OC[C@H](Cc4cc(OC)c(OC)cc42)[C@@H]3CO)cc1OC` [No. 5] here?
Its GI50 is > 100 µM.

And the “Percentage of cell lines affected” value [1]?
The value was 96%.

With `COc1ccc([C@]23OC[C@H](Cc4cc(OC)c(OC)cc42)[C@@H]3COC(C)=O)cc1OC` [No. 6] as the molecule, how does the “Percentage of cell lines affected” value [1] read?
Its value is 10%.

For `COc1cc([C@@H]2c3cc4c(cc3[C@H](O)[C@H]3COC(=O)[C@H]23)OCO4)cc(OC)c1OC` [PT, podophyllotoxin], which “Inhibition of microtubule assembly” value [2] is on record?
The value was “inhibiting the assembly of tubulin into microtubules”.

What about the “Inhibition of nucleoside transport” value [3] of the same molecule?
The value was “inhibit nucleoside transport in mammalian cells”.

What about the “Antitumor / biological activity” value (antitumor activity) of the same molecule?
The value was “has antiviral and antitumor activity”.

What about the “Toxicity” value [4] of the same molecule?
The value was “highly toxic”.

And the “Antiviral activity” value (antiviral activity)?
Its value is “has antiviral and antitumor activity”.

What about the “Arrest of cell division” value (cell division) of the same molecule?
The value was “arrest of cell division at the mitotic stage of the cell cycle”.

For `COc1cc([C@@H]2c3cc4c(cc3[C@@H](O[C@@H]3O[C@@H]5CO[C@@H](C)O[C@H]5[C@H](O)[C@H]3O)[C@H]3COC(=O)[C@H]23)OCO4)cc(OC)c1O` [etoposide], which “Inhibition of microtubule assembly” value [2] is on record?
Its value is “not inhibitors of microtubule assembly”.

And the “Interaction and inhibition of topoisomerase II” value (tolpoisomerase II)?
The value was “interaction and inhibition of the enzyme tolpoisomerase II”.

What about the “Effectiveness in the treatment of leukemias and solid tumors” value [5] of the same molecule?
The value was “effective in the treatment of a variety of leukemias and solid tumors”.

With `COc1cc([C@]23OC[C@H](Cc4cc5c(cc42)OCO5)[C@@H]3CO)cc(OC)c1OC` [oxabicyclooctane] as the molecule, how does the “Intraperitoneal score, hollow fiber assay” value ([6]; i.p. fiber implants) read?
Its value is 14.

What about the “Subcutaneous score, hollow fiber assay” value ([6]; s.c. fiber implants) of the same molecule?
Its value is 2.

Which “Inhibition of microtubule assembly” value [2] does the source give for `COc1cc([C@@H]2c3cc4c(cc3[C@@H](O[C@@H]3O[C@@H]5CO[C@@H](c6cccs6)O[C@H]5[C@H](O)[C@H]3O)[C@H]3COC(=O)[C@H]23)OCO4)cc(OC)c1O` [teniposide] here?
Its value is “not inhibitors of microtubule assembly”.

What about the “Interaction and inhibition of topoisomerase II” value (tolpoisomerase II) of the same molecule?
The value was “interaction and inhibition of the enzyme tolpoisomerase II”.

What about the “Effectiveness in the treatment of leukemias and solid tumors” value [5] of the same molecule?
Its value is “effective in the treatment of a variety of leukemias and solid tumors”.
